Two compounds from US8952169B2 (Genentech, Inc., priority 2012, dated 2015) can be followed below.

Each structure is given as a SMILES string.

What is called IC50 is the midpoint of a concentration-inhibition curve.

Experiment [1] concerns the target T1, hNav1.7 (Homo sapiens (Human), UniProt Q15858). In words: Patch voltage clamp electrophysiology (PatchXpress), HEK-293 cells, inactivated state block. The note with it: HEK-293 cells, β1 coexpressed; inactivated state, holding −60 mV; read-out: EP_PX 293 hNav1.7 (IC50). It counts as cell-based.
Experiment [2] concerns the target T1, hNav1.7. As to the kind of experiment: Tritiated aryl sulfonamide binding to membranes from cells expressing hNav1.7 and the β1 subunit (competitive binding). The note with it: membranes with hNav1.7 and β1 subunit; [3H]compound displacement, 18 h, room temperature; read-out: NaV1.7 395 Memb Binding (IC50). The method, boiled down: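 Competitive displacement of 100 μM [3H]-labelled tritiated aryl sulfonamide from hNav1.7/β1 membranes, 18 h at room temperature in 100 mM NaCl, 20 mM Tris HCl pH 7.4. Non-specific binding defined with 1 μM unlabelled compound. Filter-bound radioactivity measured by liquid scintillation counting.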

Experiment [3] has as its target hNav1.5 (Homo sapiens (Human), UniProt Q14524). As to the kind of experiment: Patch voltage clamp electrophysiology (PatchXpress), HEK-293 cells, inactivated state block. The note with it: read-out: EP_PX 293 hNav1.5 (IC50), β1 coexpressed, holding −60 mV.

T1 sequence (Q15858 whole entry, looked up): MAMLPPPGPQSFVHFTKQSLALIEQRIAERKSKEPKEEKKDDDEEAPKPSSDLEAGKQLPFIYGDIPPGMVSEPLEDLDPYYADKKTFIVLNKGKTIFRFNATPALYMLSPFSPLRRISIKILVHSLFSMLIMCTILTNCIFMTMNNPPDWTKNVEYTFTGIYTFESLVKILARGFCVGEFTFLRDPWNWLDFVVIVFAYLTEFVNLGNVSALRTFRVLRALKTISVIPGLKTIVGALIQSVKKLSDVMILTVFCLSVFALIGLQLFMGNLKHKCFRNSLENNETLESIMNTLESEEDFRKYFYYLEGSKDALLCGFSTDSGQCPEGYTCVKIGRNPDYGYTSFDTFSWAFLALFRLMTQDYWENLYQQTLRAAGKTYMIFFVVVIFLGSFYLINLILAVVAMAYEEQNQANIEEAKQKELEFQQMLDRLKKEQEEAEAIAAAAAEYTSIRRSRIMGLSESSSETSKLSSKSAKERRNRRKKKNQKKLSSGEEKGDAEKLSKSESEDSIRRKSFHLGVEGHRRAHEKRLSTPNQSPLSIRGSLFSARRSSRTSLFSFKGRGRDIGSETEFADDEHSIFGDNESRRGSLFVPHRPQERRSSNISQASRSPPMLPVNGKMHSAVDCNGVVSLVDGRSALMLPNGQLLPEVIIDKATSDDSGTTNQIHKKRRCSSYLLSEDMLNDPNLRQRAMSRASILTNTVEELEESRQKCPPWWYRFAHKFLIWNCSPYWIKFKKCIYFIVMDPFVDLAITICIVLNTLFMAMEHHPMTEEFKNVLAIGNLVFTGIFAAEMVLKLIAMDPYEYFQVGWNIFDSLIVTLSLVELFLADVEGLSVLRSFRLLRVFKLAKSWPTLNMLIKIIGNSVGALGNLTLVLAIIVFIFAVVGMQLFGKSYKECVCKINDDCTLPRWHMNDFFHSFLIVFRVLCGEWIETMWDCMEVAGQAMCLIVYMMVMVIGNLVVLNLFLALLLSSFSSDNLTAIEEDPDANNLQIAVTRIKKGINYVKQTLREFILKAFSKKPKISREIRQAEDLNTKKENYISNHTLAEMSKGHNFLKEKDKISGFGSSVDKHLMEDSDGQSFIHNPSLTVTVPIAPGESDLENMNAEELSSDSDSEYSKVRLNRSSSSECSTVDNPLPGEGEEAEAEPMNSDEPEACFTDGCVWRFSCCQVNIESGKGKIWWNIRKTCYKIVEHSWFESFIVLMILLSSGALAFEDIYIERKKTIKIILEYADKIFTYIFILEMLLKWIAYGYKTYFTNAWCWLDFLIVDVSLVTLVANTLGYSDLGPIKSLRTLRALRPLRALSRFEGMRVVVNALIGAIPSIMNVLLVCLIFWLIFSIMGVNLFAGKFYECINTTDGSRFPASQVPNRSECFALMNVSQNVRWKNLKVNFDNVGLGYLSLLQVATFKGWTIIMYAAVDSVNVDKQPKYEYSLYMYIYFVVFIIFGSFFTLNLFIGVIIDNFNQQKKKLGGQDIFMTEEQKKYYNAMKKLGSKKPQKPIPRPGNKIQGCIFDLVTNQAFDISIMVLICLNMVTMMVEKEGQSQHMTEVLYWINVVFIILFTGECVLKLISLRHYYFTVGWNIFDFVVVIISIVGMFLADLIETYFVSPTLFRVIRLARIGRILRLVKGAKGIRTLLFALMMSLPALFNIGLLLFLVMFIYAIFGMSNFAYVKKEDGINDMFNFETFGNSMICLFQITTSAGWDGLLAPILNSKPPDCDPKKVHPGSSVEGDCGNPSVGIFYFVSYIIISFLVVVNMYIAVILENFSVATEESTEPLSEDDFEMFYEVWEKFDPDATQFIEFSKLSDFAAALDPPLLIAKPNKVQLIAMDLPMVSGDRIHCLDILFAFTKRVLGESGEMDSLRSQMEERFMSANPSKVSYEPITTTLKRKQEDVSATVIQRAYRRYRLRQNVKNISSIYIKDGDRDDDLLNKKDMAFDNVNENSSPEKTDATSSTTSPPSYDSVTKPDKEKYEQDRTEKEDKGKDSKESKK
T1 sequence (Q07699 whole entry partner, looked up): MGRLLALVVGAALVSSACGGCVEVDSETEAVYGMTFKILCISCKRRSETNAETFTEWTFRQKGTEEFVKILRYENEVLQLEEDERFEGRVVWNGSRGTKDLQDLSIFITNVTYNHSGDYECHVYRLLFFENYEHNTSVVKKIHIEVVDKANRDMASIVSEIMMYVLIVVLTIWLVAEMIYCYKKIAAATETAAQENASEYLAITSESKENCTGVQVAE
hNav1.5, sequence (Q14524 whole entry): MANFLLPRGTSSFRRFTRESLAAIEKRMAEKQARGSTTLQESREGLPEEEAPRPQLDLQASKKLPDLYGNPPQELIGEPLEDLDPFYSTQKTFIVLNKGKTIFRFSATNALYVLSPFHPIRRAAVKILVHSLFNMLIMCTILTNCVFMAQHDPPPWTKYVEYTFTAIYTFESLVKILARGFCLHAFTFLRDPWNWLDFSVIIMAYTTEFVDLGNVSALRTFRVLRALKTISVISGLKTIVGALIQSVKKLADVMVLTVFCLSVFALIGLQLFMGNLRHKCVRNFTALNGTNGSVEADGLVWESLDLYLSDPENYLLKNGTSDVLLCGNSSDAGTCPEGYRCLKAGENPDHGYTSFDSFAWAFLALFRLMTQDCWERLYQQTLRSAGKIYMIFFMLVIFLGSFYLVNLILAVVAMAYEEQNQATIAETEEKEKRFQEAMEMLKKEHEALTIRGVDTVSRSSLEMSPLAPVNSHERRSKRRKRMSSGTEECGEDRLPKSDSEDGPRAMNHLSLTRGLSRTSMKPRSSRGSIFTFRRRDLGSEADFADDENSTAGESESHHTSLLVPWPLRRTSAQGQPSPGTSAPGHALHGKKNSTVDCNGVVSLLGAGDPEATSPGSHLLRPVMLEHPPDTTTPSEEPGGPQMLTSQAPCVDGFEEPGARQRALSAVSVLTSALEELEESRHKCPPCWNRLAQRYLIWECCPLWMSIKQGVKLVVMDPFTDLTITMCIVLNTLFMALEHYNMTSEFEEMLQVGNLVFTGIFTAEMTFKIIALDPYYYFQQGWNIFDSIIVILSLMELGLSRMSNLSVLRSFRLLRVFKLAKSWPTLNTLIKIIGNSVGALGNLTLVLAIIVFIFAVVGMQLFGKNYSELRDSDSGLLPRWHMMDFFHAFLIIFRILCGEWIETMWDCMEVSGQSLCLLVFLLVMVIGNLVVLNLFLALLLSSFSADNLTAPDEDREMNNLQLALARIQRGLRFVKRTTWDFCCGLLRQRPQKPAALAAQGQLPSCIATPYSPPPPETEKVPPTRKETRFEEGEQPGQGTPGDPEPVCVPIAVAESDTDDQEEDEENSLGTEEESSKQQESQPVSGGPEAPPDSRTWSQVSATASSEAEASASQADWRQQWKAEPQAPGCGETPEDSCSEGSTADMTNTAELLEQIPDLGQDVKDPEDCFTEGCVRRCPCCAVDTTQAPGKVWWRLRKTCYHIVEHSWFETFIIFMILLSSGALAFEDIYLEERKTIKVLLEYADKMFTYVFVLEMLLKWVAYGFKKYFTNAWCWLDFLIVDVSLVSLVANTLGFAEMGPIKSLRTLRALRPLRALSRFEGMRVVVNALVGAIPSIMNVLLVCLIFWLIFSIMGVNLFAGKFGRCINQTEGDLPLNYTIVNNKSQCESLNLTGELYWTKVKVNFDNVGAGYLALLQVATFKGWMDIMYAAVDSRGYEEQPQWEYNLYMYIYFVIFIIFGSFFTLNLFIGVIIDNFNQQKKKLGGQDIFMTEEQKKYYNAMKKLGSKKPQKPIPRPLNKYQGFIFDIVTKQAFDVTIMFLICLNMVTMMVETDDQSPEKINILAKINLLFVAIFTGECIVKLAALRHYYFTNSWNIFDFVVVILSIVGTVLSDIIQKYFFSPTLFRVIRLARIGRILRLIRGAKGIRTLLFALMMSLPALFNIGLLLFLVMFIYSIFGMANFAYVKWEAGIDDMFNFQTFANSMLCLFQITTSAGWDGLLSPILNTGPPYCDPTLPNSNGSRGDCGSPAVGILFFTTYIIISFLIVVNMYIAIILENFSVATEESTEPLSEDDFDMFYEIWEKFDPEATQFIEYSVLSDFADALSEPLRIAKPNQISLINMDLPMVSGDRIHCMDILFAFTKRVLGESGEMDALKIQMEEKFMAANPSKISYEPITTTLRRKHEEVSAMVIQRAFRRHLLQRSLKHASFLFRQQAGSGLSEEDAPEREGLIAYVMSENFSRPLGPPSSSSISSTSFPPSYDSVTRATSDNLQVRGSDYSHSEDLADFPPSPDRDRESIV

Take `O=C(NS(=O)(=O)C1CC1)c1cc(C2CC2)c(OCC2(C(F)(F)F)CCCCC2)cc1F` [Example 446, 5-cyclopropyl-N-(cyclopropylsulfonyl)-2-fluoro-4-((1-(trifluoromethyl)-cyclohexyl)methoxy)benzamide]: the IC50 in experiment [1] amounted to 3.1 nM; in experiment [2], 1.6 nM; in experiment [3], 160 nM.

Turning to `O=C(NS(=O)(=O)N1CCC1)c1cc(C2CC2)c(OCC2CCC(F)(F)CC2)cc1F` [Example 448, N-(azetidin-1-ylsulfonyl)-5-cyclopropyl-4-((4,4-difluorocyclohexyl)-methoxy)-2-fluorobenzamide], the IC50 turned out to be 7.8 nM in experiment [1], 18 nM in experiment [2] and 940 nM in experiment [3].
